System: MAP kinase cascade activating protein according to SEQ ID NO: 4, 6, 12, 16, 18, 22, 26, 28, 30, 44, 50, 52, 60, 68, 72, 104, 110, 112, 116, 122, 132, 142, 146 …
Test: Screening for inhibitors in 293-EBNA reporter systems expressing MAP kinase cascade activating proteins
Assay type: cell-based, human
Conditions: compound 10 μM; 50 ng expression plasmid; 24 hours; all 27 SEQ ID NO systems
Procedure: (in the presence of 5% CO2). Then, using FuGENE6 (Roche), 50 ng of each of the expression plasmids obtained in Example 2 above which comprise a gene encoding the MAP kinase cascade activating protein according to SEQ ID NO: 4, 6, 12, 16, 18, 22, 26, 28, 30, 44, 50, 52, 60, 68, 72, 104, 110, 112, 116, 122, 132, 142, 146, 148, 150, 152 or 154 were respectively co-transfected in a well with 60 ng of pFR-Luc ([…]), 0.25 ng of pFA2-Elk1 ([…]), 5 ng of pcDNA 3.1 (+) (INVITROGEN) into which human p38 gene had been incorporated and 30 ng of pcDNA 3.1 (+) (INVITROGEN) into which human JNJ1 β 1 gene had been incorporated. The method used for introduction was in accordance with the attached protocol. After culturing for 2 hours at 37° C., any one of 1000 types of compound that were held in stock, was added to a final concentration of 10 μM per well, and after further culturing for 24 hours at 37° C., reporter activity, which reflects MAP kinase cascade activition, was measured by Picagene LT2 (purchased from Toyo Ink Manufacturing) in accordance with the manufacturer's instructions. Using a well to which no compound was added as a control, compounds were screened to identify a compound which reduced reporter activity in the well to which it was added to 50% or lower. […]

For CN[C@@H]1C[C@H]2O[C@@](C)([C@@H]1OC)n1c3ccccc3c3c4c(c5c6ccccc6n2c5c31)C(=O)NC4 [staurosporine], which “reporter activity relative to control well to which no compound was added” value is on record?
Its value is at most 50%.
